Source: patent US8691799B2, “Materials and methods for treatment of cancer and identification of anti-cancer compounds” (priority 2001, dated 2014)

Columns and labels:
[1] = test system: SRE-dependent pRLSRE renilla luciferase reporter; assay: SRE-dependent luciferase reporter assay in v-Src/NIH 3T3 fibroblasts; type: cell-based, murine; settings: 10 μM, 24-48 hr
Excerpt: DNA Binding and Transcription. The STAT3 reporter, pLucTKS3, driving expression of firefly luciferase has been previously described (Turkson, J. et al. Mol. Cell Biol., 1999, 19:7519-7528). The pLucTKS3 plasmid harbors seven copies of a sequence corresponding to the STAT3-specific binding site in the promoter of the human C-reactive protein gene (Zhang, D. et al. J. Biol. Chem., 1996, 271:9503-9509). The STAT3-independent plasmid, pRLSRE, contains two copies of the serum response element (SRE) from the c-fos promoter (Yamauchi, K. et al. J. Biol. Chem., 1993, 268:14597-14600), subcloned into renilla luciferase reporter, pRL-null (Promega Corporation, Madison, Wis.).
Transfection and Generation of Stable Clones. […]
Preparation of Cytosolic Extracts. […] Cells were resuspended in 0.4 ml of low-salt HEPES buffer (10 mM HEPES, pH 7.8, 10 mM KCl, 0.1 mM EGTA, 0.1 mM EDTA, 1 mM PMSF, and 1 mM DTT) for 15 min, lysed by the addition of 20 μl of 10% NP-40, and centrifuged (10,000×g, 30 sec, 4° C.) to obtain the cytosolic supernatant, which was used for luciferase assays (Promega Corporation) measured with a luminometer.

Src = Src kinase autophosphorylation assay on immunoprecipitates; type: biochemical; settings: immunoprecipitates from A549, MDA-MB-468 or v-Src/NIH 3T3 cells
Protocol: Src Kinase Assay. A549, MDA-MB-468, and v-Src cells were harvested and lysed for 30 min on ice in RIPA150 buffer (10 mM Tris, pH 7.5, 150 mM NaCl, 10% glycerol, 5 mM EDTA, 1% Triton-X-100, 0.1% SDS, 100 μM sodium orthovanadate, 10 μg/ml aprotinin, 10 μg/ml leupeptin, 1 μg/ml antipain). Samples were spun at high speed to clear, then 1000 μg of protein were immunoprecipitated per treatment condition with 2 μg v-Src antibody (Ab-1, Oncogene Research Products, San Diego, Calif.) rocking overnight at 4° C. 25 μl of protein A/G PLUS agarose then was added and rocking continued for 4 hr at 4° C. Samples were spun to collect agarose pellet, and pellet washed three times in RIPA150 buffer, twice in RIPA10 buffer (10 mM Tris, pH 7.5, 10 mM NaCl, 10% glycerol, 5 mM EDTA, 1% Triton-X-100, 0.1% SDS, 100 μM sodium orthovanadate 10 μg/ml aprotinin, 10 μg/ml leupeptin, 1 μg/ml antipain), and three times in 40 mM Tris, pH 7.4. Pellet was then resuspended in 30 μl kinase reaction buffer (20 mM Tris, pH 7.4, 5 mM MgCl2) containing 10 μCi γ-[^32P]ATP. Inhibitors were preincubated for several minutes before the addition of the ATP. Kinase reactions were carried out at room temperature for 15 min. Reaction was stopped with the addition of 2×SDS-PAGE sample buffer. Samples were boiled and run on 10% SDS-PAGE gels. Autophosphorylation results were visualized by autoradiography.

JAK2 = biological target: T1, JAK2 (Homo sapiens, UniProt O60674); assay: JAK kinase autophosphorylation assay on immunoprecipitates (JAK2); type: biochemical; settings: immunoprecipitates from A549, MDA-MB-468 or v-Src/NIH 3T3 cells; AG490 100 μM, PD180970 2 μM
T1 construct: Src, JAK1, and JAK2 were immunoprecipitated from either A549, MDA-MB-468, or v-Src/NIH 3T3 cells; endogenous in cells; host or cells: A549, MDA-MB-468, v-Src transformed NIH 3T3 (immunoprecipitates)
T1 sequence (O60674 whole entry): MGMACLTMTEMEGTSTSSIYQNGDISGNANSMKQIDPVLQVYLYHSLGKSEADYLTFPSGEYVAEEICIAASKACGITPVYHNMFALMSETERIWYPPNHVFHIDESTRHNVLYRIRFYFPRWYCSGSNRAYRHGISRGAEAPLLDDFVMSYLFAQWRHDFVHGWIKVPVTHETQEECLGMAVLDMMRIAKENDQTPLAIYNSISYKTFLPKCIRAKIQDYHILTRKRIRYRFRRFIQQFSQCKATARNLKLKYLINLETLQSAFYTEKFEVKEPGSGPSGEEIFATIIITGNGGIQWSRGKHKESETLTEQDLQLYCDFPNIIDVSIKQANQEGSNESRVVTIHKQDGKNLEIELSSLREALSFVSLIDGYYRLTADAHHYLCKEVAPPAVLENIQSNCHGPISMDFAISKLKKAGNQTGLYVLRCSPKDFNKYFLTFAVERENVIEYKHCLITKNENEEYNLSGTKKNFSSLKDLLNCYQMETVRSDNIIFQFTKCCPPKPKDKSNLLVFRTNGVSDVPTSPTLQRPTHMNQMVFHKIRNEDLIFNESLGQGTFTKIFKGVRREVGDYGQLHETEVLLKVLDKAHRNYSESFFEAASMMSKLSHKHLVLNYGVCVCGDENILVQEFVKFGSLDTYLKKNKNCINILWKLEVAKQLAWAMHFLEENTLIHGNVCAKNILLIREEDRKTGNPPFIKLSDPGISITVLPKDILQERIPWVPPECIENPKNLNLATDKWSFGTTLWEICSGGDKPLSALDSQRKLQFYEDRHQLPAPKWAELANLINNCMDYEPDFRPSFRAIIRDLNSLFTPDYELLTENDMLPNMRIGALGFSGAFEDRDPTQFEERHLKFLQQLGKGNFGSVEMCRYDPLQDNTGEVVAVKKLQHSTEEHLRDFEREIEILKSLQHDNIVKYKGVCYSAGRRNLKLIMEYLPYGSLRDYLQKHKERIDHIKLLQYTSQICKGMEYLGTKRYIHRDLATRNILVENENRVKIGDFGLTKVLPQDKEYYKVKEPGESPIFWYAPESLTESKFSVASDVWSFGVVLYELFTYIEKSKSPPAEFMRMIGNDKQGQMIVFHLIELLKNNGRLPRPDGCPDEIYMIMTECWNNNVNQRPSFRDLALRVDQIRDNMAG
Protocol: JAK Kinase Assays. A549, MDA-MB-468, and v-Src transformed NIH 3T3 cells were harvested, washed three times in PBS-V (10 mM sodium phosphate, pH 7.4, 137 mM NaCl, 1 mM sodium orthovanadate) then lysed for 30 min on ice in JAK kinase lysis buffer (25 mM Hepes, pH 7.4, 0.1% Triton-X-100, 0.5 mM DTT, 1 mM sodium orthovanadate, 1 mM PMSF, 10 μg/ml aprotinin, 10 μg/ml leupeptin). Samples were spun at high speed to clear, and 800-1000 μg of protein was immunoprecipitated per treatment condition with 50 ng of either JAK1 or JAK2 antibody (Santa Cruz Biotechnology) rocking overnight at 4° C. 25 μl of protein A/G PLUS agarose then was added and rocking continued for 1 hr at 4° C. Samples were spun to collect agarose pellet, and pellet washed twice in wash buffer (50 mM Hepes, pH 7.4, 0.1% Triton-X-100, 0.5 mM DTT, 150 mM NaCl) and once in phosphorylation buffer (50 mM Hepes, pH 7.4, 0.1% Triton-X-100, 0.5 mM DTI, 6.25 mM manganese chloride, 100 mM NaCl). Kinase reactions were performed at 30° C. for 15 min in a final volume of 100 μl of phosphorylation buffer. Samples were pretreated with DMSO control, JSI-124, and control compounds (AG490, 100 μM, and […], 2 μM) before addition of 20 μCi/sample y-[^32P]ATP. Reaction was halted using stop buffer (wash buffer plus 10 mM EDTA), samples spun to collect pellet, then pellet washed once with stop buffer and twice with wash buffer. Samples were then placed in 2×SDS-PAGE sample buffer, boiled at 100° C., and run on 8% SDS-PAGE gels to separate proteins. Autophosphorylation results were visualized by autoradiography.

`CC(C)(O)/C=C/C(=O)[C@](C)(O)[C@H]1[C@H](O)C[C@@]2(C)[C@@H]3CC=C4[C@@H](C=C(O)C(=O)C4(C)C)[C@]3(C)C(=O)C[C@]12C` [JSI-124, cucurbitacin I] was tested, and the “pRLSRE (SRE-dependent) luciferase reporter” value [1] was “without affecting”, the “Src kinase activity (autophosphorylation) in vitro” value (Src) was “not affected” and the “JAK2 kinase activity (autophosphorylation) in vitro” value (JAK2) was “not affected”.
